Test results reported in BindingDB's records for doi:10.1021/jm020134i (Northwestern University, 2002).

Assay: Concentration dependent inactivation of gGamma-amino-N-butyrate transaminase

## N[C@@H]1C=CC[C@H](C(=O)O)C1 [5-Amino-cyclohex-3-enecarboxylic acid]
  Ki: 2300 µM
